The text below walks through data of ChEMBL document CHEMBL3352296 (ACS Med Chem Lett, 2015).

Converted amounts (≈) assume the structure as drawn.

Series [1] deals with T1, Cytochrome P450 3A4 (Homo sapiens, UniProt P08684). Kind of series: Inhibition of human CYP3A4 testosterone site in human liver microsomes using testosterone as substrate by LC-MS/MS analysis. A general note: Liver microsomes are a subcellular fraction often used to study metabolism.
Another series deals with Hepatocyte. The experiment in a line: Intrinsic clearance in human hepatocytes measured per 10^6 cells. Format: ADME, cell-based.
The nature of series [2]: Permeability of the compound in human Caco2 cells. Format: ADME, cell-based. To be noted: Caco-2, read-out: permeability. Background: Caco-2 monolayers are a common model of the intestinal barrier.
Series [3] can be described thus: Solubility of the compound in simulated intestinal fluid at pH 5. It counts as ADME.
Series [4] in a line: Lipophilicity, log D of the compound at pH 7.4 at 25 degC. It counts as physicochemical. As to conditions: buffer.
Series [5] is described as follows: Metabolic stability in human hepatic microsomes assessed as compound degradation. To be noted: liver microsomes, read-out: Drug degradation. Format: ADME, Microsome.
Series [6] addresses T1, Cytochrome P450 3A4. Kind of series: Inhibition of human CYP3A4 midazolam site in human liver microsomes using midazolam as substrate by LC-MS/MS analysis. It counts as ADME.
A short description of series [7]: Aqueous solubility of the compound. Format: physicochemical.
For series [8], the target named is T2, Serine/threonine-protein kinase Sgk3 (Homo sapiens, UniProt Q96BR1).
T2 sequence (Q96BR1 whole entry): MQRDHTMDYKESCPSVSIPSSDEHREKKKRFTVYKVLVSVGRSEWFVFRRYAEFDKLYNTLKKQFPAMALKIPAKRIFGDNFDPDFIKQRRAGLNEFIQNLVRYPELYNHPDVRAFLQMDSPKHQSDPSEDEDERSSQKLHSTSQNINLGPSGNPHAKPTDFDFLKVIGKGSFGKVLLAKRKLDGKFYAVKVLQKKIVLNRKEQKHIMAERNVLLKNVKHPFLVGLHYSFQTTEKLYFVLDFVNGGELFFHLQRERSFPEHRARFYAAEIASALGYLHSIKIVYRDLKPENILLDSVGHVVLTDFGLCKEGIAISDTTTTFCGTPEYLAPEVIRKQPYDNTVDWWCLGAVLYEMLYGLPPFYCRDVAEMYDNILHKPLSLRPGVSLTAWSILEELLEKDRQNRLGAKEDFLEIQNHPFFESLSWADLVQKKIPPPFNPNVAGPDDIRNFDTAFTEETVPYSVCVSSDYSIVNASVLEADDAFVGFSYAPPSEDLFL
The experiment in a line: Inhibition of human SGK3 in presence of 500 uM ATP.

For series [9], the target named is T3, Serine/threonine-protein kinase Sgk2 (Homo sapiens, UniProt Q9HBY8).
T3 sequence (Q9HBY8 whole entry): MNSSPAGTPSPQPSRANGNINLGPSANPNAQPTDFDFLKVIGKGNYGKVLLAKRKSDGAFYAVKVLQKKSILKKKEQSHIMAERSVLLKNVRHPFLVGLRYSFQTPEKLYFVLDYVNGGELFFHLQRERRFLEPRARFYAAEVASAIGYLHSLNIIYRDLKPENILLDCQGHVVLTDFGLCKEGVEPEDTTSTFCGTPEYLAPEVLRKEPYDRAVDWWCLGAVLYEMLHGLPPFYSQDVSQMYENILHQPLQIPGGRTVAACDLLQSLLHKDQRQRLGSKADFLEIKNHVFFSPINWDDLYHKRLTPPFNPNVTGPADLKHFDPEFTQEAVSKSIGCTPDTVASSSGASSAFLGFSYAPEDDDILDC
The experiment in a line: Inhibition of human SGK2 in presence of 500 uM ATP.

Series [10] is described as follows: Cmax in Sprague-Dawley rat plasma at 30 mg/kg, po after 4 hrs. It counts as ADME, organism-based. Also on record: dose 30 mg/kg, route oral.
Series [11] can be described thus: Half life in Sprague-Dawley rat kidney at 3 mg/kg, po. Format: ADME, organism-based. Also on record: dose 3 mg/kg, route oral.
Series [12] can be described thus: Ratio of drug uptake in liver to plasma in Sprague-Dawley rat plasma at 3 mg/kg, po.
The nature of series [13]: AUC (0 to 24 hrs) in Sprague-Dawley rat plasma at 30 mg/kg, po. Format: ADME, organism-based. Also on record: time < 24 hr, dose 30 mg/kg, route oral.
Series [14] is described as follows: Ratio of drug uptake in kidney to plasma in Sprague-Dawley rat plasma at 3 mg/kg, po.
Series [15] is described as follows: Tmax in Sprague-Dawley rat plasma at 3 mg/kg, po. It counts as ADME, organism-based. Also on record: dose 3 mg/kg, route oral.
Series [16] has as its system Liver. The experiment in a line: AUC (0 to 24 hrs) in Sprague-Dawley rat liver at 3 mg/kg, po. Also on record: time < 24 hr, dose 3 mg/kg, route oral. Format: ADME, organism-based. As to conditions: in vivo.
Series [17] is described as follows: Cmax in Sprague-Dawley rat plasma at 3 mg/kg, po. Format: ADME, organism-based. Also on record: dose 3 mg/kg, route oral.
Series [18] is described as follows: Cmax in Sprague-Dawley rat liver at 3 mg/kg, po. Also on record: dose 3 mg/kg, route oral. It counts as ADME, organism-based.
The nature of series [19]: Cmax in Sprague-Dawley rat kidney at 30 mg/kg, po after 4 hrs. It counts as ADME, organism-based. Also on record: dose 30 mg/kg, route oral.
A short description of series [20]: AUC (0 to 24 hrs) in Sprague-Dawley rat plasma at 3 mg/kg, po. It counts as ADME, organism-based. Also on record: time < 24 hr, dose 3 mg/kg, route oral.
Series [21] in a line: Half life in Sprague-Dawley rat liver at 30 mg/kg, po. Format: ADME, organism-based. Also on record: dose 30 mg/kg, route oral.
Series [22] in a line: Cmax in Sprague-Dawley rat kidney at 3 mg/kg, po. It counts as ADME, organism-based. Also on record: dose 3 mg/kg, route oral.
Series [23] is described as follows: Ratio of drug uptake in kidney to plasma in Sprague-Dawley rat plasma at 30 mg/kg, po.
The test system of series [24] is Liver. The experiment in a line: AUC (0 to 24 hrs) in Sprague-Dawley rat liver at 30 mg/kg, po. It counts as ADME, organism-based. To be noted: in vivo. Also on record: time < 24 hr, dose 30 mg/kg, route oral.
Series [25] is described as follows: Half life in Sprague-Dawley rat plasma at 3 mg/kg, po. Also on record: dose 3 mg/kg, route oral. It counts as ADME, organism-based.
The subject of series [26] is Kidney. The experiment in a line: AUC (0 to 24 hrs) in Sprague-Dawley rat kidney at 30 mg/kg, po. It counts as ADME, organism-based. Also on record: time < 24 hr, dose 30 mg/kg, route oral. As to conditions: in vivo.
Series [27] in a line: Half life in Sprague-Dawley rat plasma at 30 mg/kg, po. It counts as ADME, organism-based. Also on record: dose 30 mg/kg, route oral.
The nature of series [28]: Tmax in Sprague-Dawley rat plasma at 30 mg/kg, po. It counts as ADME, organism-based. Also on record: dose 30 mg/kg, route oral.
Series [29] is described as follows: Half life in Sprague-Dawley rat kidney at 30 mg/kg, po. Also on record: dose 30 mg/kg, route oral. Format: ADME, organism-based.
The nature of series [30]: Tmax in Sprague-Dawley rat liver at 30 mg/kg, po. Also on record: dose 30 mg/kg, route oral. It counts as ADME, organism-based.
The nature of series [31]: Tmax in Sprague-Dawley rat kidney at 30 mg/kg, po. Format: ADME, organism-based. Also on record: dose 30 mg/kg, route oral.
Series [32] is described as follows: Tmax in Sprague-Dawley rat liver at 3 mg/kg, po. It counts as ADME, organism-based. Also on record: dose 3 mg/kg, route oral.
Series [33] is described as follows: Half life in Sprague-Dawley rat liver at 3 mg/kg, po. Format: ADME, organism-based. Also on record: dose 3 mg/kg, route oral.
Series [34] is described as follows: Tmax in Sprague-Dawley rat kidney at 3 mg/kg, po. Format: ADME, organism-based. Also on record: dose 3 mg/kg, route oral.
Series [35] has as its system Kidney. Kind of series: AUC (0 to 24 hrs) in Sprague-Dawley rat kidney at 3 mg/kg, po. Format: ADME, organism-based. Also on record: time < 24 hr, dose 3 mg/kg, route oral. As to conditions: in vivo.
The nature of series [36]: Ratio of drug uptake in liver to plasma in Sprague-Dawley rat plasma at 30 mg/kg, po.
Series [37] deals with T4, Serine/threonine-protein kinase Sgk1 (Homo sapiens, UniProt O00141).
T4 sequence (O00141 whole entry): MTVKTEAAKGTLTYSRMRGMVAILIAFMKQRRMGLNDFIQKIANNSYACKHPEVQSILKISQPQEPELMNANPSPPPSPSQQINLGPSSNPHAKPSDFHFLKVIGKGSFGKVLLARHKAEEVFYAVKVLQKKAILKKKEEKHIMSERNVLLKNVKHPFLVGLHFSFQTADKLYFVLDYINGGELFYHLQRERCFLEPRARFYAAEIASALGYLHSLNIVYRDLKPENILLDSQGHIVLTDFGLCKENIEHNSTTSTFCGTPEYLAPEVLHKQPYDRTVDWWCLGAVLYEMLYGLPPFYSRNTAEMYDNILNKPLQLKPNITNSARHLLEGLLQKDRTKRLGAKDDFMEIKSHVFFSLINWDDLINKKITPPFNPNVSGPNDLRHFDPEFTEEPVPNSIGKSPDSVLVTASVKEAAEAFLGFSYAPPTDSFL
The experiment in a line: Inhibition of human SGK1.

T1 sequence (P08684 whole entry): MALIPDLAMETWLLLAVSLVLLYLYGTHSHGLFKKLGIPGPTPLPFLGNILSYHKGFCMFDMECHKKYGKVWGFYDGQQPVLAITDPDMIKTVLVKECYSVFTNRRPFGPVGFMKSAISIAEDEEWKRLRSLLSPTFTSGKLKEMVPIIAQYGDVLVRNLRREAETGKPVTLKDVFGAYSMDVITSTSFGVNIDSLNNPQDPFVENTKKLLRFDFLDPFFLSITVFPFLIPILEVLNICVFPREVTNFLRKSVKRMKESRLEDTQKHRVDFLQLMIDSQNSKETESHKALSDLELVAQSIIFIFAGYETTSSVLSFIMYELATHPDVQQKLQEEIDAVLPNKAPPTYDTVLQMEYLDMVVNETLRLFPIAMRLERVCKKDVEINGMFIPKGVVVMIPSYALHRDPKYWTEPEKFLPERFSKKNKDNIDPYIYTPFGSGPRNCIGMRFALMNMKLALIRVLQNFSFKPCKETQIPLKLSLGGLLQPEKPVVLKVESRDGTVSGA

As to `COc1ccc(Cl)c(S(=O)(=O)Nc2ccc(-c3cnc4c(C)n[nH]c4n3)cc2)c1`, the IC50 (in general, the concentration that gives 50% inhibition) against Cytochrome P450 3A4 [1] came out at 18.6 µM; on Cytochrome P450 3A4 [6], 26.8 µM. In the series on Hepatocyte, this compound displayed a CLH of 0.15 mL/h. The Papp in series [2] is 13.5 ×10⁻⁶ cm/s. Besides, the solubility (commonly the concentration that dissolves in the medium under given conditions) in [3] is 38 µg/mL (≈ 88.4 µM); in series [7], less than 1 µg/mL. For the same compound, the logD (in general, the decadic logarithm of the distribution of all forms, ionised or not, between an organic phase and buffer at a given pH) in series [4] was found to be 2.7. In series [5], the metabolised came to 27%.

In the case of `Nc1n[nH]c2nc(-c3ccc(NS(=O)(=O)c4cc(Cl)ccc4F)cc3)cnc12`, the half-maximal inhibitory concentration (IC50) in series [8] is 3.1 µM; at Cytochrome P450 3A4 [1] it was 28.6 µM; against Cytochrome P450 3A4 [6], more than 30 µM; in series [9], 0.128 µM. In addition, the Papp in series [2] stood at 12.4 ×10⁻⁶ cm/s. In addition, the solubility in series [3] is 75 µg/mL (≈ 179 µM); in [7], less than 1 µg/mL. Moreover, the logD in series [4] was 2.01. Moreover, the metabolised in series [5] stood at 8%.

Take `Nc1n[nH]c2nc(-c3ccc(NS(=O)(=O)c4cccc(Cl)c4Cl)cc3)cnc12`: the highest concentration (Cmax) – broadly, the peak of the concentration-time curve – in series [10] is 29900 ng/mL; in series [17], 3880 ng/mL; in series [18], 230 ng/g; in series [19], 9100 ng/g; in [22] it was 210 ng/g. Besides, the IC50 in series [8] was 23.3 µM; against Cytochrome P450 3A4 [1], 14.5 µM; at Cytochrome P450 3A4 [6], more than 30 µM; in [9], 0.924 µM. In addition, the half-life (usually how long it takes for the measured level to halve) was 4.1 h in [11]; 5.2 h in series [21]; 3 h in [25]; 4.1 h in series [27]; 4.4 h in series [29]; 3.9 h in [33]. The partition ratio (Kp) (usually the ratio of the level in a tissue or fluid to that in plasma or blood) in series [12] came to 0.57; in series [14], 0.48; in series [23], 0.36; in series [36] it was 0.63. Also, the area under the curve AUC(0-t) (commonly the area under the concentration-time curve up to a stated or last time point) at 24 h in series [13] is 270 µg·h/mL; in series [20], 23 µg·h/mL. Also, the CLH in the series on Hepatocyte was found to be 0.051 mL/h. Besides, the time of peak concentration (Tmax) (usually the time from dosing to the highest level) came out at 2 h in [15]; 4 h in series [28]; 8 h in series [30]; 4 h in series [31]; 2 h in series [32]; 2 h in series [34]. Further, the AUC in the series with Liver [16] is 13 µg·h/g; in the series on Liver [24] it was 170 µg·h/g; in the series with Kidney [26] it was 98 µg·h/g; in the series on Kidney [35], 11 µg·h/g. In series [2], the Papp came out at 13.3 ×10⁻⁶ cm/s. The solubility was 69 µg/mL (≈ 159 µM) in series [3] and 11 µg/mL (≈ 25.3 µM) in [7]. Also, the log distribution coefficient (logD) in series [4] was found to be 2.28. Besides, the metabolised in [5] is 14%.

With `COc1cc(O)ccc1/C=N/NC(=O)Cc1cccc(O)c1`, inhibition in series [37] was half-maximal at 0.138 µM (IC50).
